These results are taken from ChEMBL document CHEMBL1165894, “Synthesis and pharmacological characterization of a novel nitric oxide-releasing diclofenac derivative containing a benzofuroxan moiety” (Eur J Med Chem, 2010).

Data set [1] deals with Rattus norvegicus. The experiment in a line: Toxicity in Wistar rat assessed as reduction in PGE2 level in gastric mucosa at 30 mg/kg, po. Conditions: in vivo. The format is organism-based. The arrangement: dose 30 mg/kg, route oral.
The subject of data set [2] is Rattus norvegicus. Briefly: Antiinflammatory activity in Wistar rat assessed as reduction in carrageenan-induced paw edema at 100 mg/kg, ip after 0.5 to 4 hrs. The class given is functional, organism-based. Also on record: dose 100 mg/kg.
Data set [3] has as its system Blood. The experiment in a line: Antiinflammatory activity in human whole blood assessed as inhibition of LPS-induced PGE2 production at 1 to 100 uM after 18 hrs by ELISA. The format is functional, tissue-based. (In general: An ELISA detects its analyte on a solid surface through an enzyme-linked reagent.)
Data set [4] in a line: Induction of NO release in phosphate buffer containing L-cysteine at pH 7.4 assessed as nitrite level by Griess assay. The class given is physicochemical. A general note: Griess reagent forms a coloured azo dye with nitrite.
The subject of data set [5] is Blood. The experiment in a line: Antiinflammatory activity in human whole blood assessed as inhibition of LPS-induced production at 0.01 to 100 uM after 18 hrs by ELISA.

The source made the active and inactive calls. The rule behind the calls is not given here.

For the compound `O=C(Cc1ccccc1Nc1c(Cl)cccc1Cl)OCc1ccc2no[n+]([O-])c2c1`, the Activity result in the data set on Rattus norvegicus [1] is “Toxic”; in data set [4] it was 372 nM. The outcome in the data set on Rattus norvegicus [2], with Blood [3] and in the data set on Blood [5] was Active.
